What all share (format): cell-based
One data set concerns HBsAg. As to the kind of experiment: PHH HBV natural infection assay, HBsAg (alphalisa). To be noted: Hepatitis B virus, Hepatocyte, 72 h, read-out: HBsAg IC50. On the procedure: (§1) Detailed procedures regarding primary human hepatocyte (PHH) HBV natural infection assay are described as below. One tube of frozen PHH (10 million cells) is thawed in 37° C. water bath and then transferred to 20 mL of PHH thawing medium (Sigma, InVitroGRO HT Medium, Cat. S03319) with gently mixing. The cells were then centrifuged at […] for 5 min, the supernatant was discarded and the tube was refilled with 25 mL of PHH plating medium (Sigma, InVitroGRO CP Medium, Cat. 503317). The tube was shaken very gently to re-suspend all cells. 50 μl of cells were transferred to each well 384-well collagen I coated plate with appropriate liquid handling equipment, e.g. Integra VIAFLO384 or Agilent Bravo. The cells were then cultured for 24 hours in a cell incubator. For HBV infection, after PHH attachment on the culture plate, the plating medium was removed and replenished with PHH culture medium containing HBV virus. The PHH culture medium was prepared with Dulbecco's Modified Eagle Medium (DMEM)/F12 (1:1 in volume ratio) containing 10% fetal bovine serum (Gibco, Cat. 10099141), […] (Gibco, Cat. PHG03I1L), 20 ng/mL dexamethasone (Sigma, Cat. D4902-100 mg), 250 ng/mL human recombinant insulin (Gibco, Cat. 41400045) and 100 U/mL penicillin. HBV virus at 200 genome equivalent (GE) per cell with 4% PEG8000 (Sigma, Cat. P1458) containing culture medium were added to the PHH culture medium for infection. The cells were then cultured for 24 hours in cell incubator. Then the cell culture supernatant was removed. The HBV-infected PHH were cultured with sandwich culture method with PHH culture medium containing 1% DMSO and 0.25 mg/mL matrix gel for 72 hours. The supernatant was then refreshed with PHH culture medium containing different concentrations of testing compounds for two times with 72-hour interval. At the end of treatment, the supernatant was collected for viral markers measurements, including HBsAg, HBeAg, HBV DNA and cytotoxicity. HBsAg and HBeAg were detected using alphalisa method using their specific antibodies. For HBV DNA detection, HBV DNA Quantitative Fluorescence Diagnostic Kit (Sansure Biotech Inc.) was used following the manufacture's protocol. Cytotoxicity was determined using Cell Counting Kit-8 (CCK8, Dojindo Molecular Technologies, Inc.).
(§2) The compounds of the present invention were tested for their capacity to inhibit HBsAg and HBeAg as described herein.
For orientation: Alpha assays give light when donor and acceptor beads are brought close together.

Another data set concerns HBeAg. The data set is described as follows: PHH HBV natural infection assay, HBeAg (alphalisa). To be noted: Hepatitis B virus, Hepatocyte, 72 h, read-out: HbeAg IC50. The protocol:
as §1, §2

Data set [1] is described as follows: Cytotoxicity in PHH natural infection assay (Cell Counting Kit-8). The following applies: HBV-infected primary human hepatocytes, CCK8. On the procedure:
as §1
(Tetrazolium dyes change colour on reduction, which living cells bring about.)

Our source for the IC50 and CC50 values is patent publication US20230286929A1, “AROMATIC BRIDGED RING AMIDE DERIVATIVES FOR THE TREATMENT AND PROPHYLAXIS OF HEPATITIS B VIRUS INFECTION” (Hoffmann-La Roche Inc., priority 2020, published 2023).

A word on the IC50: it is the concentration at which inhibition is half-maximal. As a reminder, the CC50 is the concentration giving 50% cytotoxicity. A higher CC50 goes with better tolerance by the cells. On to `CS(=O)(=O)c1ccc(C(=O)NC23CC(c4nc5cc(Cl)ccc5o4)(C2)C3)o1` [Example 1, N-[3-(5-chloro-1,3-benzoxazol-2-yl)-1-bicyclo[1.1.1]pentanyl]-5-methylsulfonyl-furan-2-carboxamide], for which the half-maximal inhibitory concentration (IC50) in the data set with HBsAg is 2.17 µM; in the data set with HBeAg, 1.77 µM. Besides, the 50% cytotoxic concentration (CC50) at 144 h in data set [1] is greater than 100 µM.

Turning to `C[S+]([O-])c1ccc(C(=O)NC23CC(c4nc5cc(Cl)ccc5o4)(C2)C3)o1` (stereo not drawn) [Example 2, N-[3-(5-chloro-1,3-benzoxazol-2-yl)-1-bicyclo[1.1.1]pentanyl]-5-methylsulfinyl-furan-2-carboxamide], the half-inhibitory concentration (IC50) was 6.45 µM in the data set on HBsAg and 2.14 µM in the data set with HBeAg. Also, the CC50 at 144 h in data set [1] was greater than 100 µM.

As to `C[S@+]([O-])c1ccc(C(=O)NC23CC(c4nc5cc(Cl)ccc5o4)(C2)C3)o1` [Example 2-a, N-[3-(5-chloro-1,3-benzoxazol-2-yl)-1-bicyclo[1.1.1]pentanyl]-5-[(S)-methylsulfinyl]furan-2-carboxamide], the IC50 came out at 2.38 µM with HBsAg and 1.19 µM with HBeAg. The same compound had a CC50 at 144 h in data set [1] greater than 100 µM.

Regarding `C[S@@+]([O-])c1ccc(C(=O)NC23CC(c4nc5cc(Cl)ccc5o4)(C2)C3)o1` [Example 2-b, N-[3-(5-chloro-1,3-benzoxazol-2-yl)-1-bicyclo[1.1.1]pentanyl]-5-[(R)-methylsulfinyl]furan-2-carboxamide], the IC50 in the data set with HBsAg was determined as 3.64 µM; with HBeAg it was 1.89 µM. The compound further gave a CC50 at 144 h in data set [1] greater than 100 µM.

Consider `CSc1ccc(C(=O)NC23CC(c4nc5cc(Cl)ccc5o4)(C2)C3)o1` [Example 3, N-[3-(5-chloro-1,3-benzoxazol-2-yl)-1-bicyclo[1.1.1]pentanyl]-5-methylsulfanyl-furan-2-carboxamide], for which the half-inhibitory concentration (IC50) is 8.05 µM with HBsAg and 3.83 µM with HBeAg. The CC50 at 144 h in data set [1] was greater than 100 µM.

As for `O=C(NC12CC(c3nc4cc(Cl)ccc4o3)(C1)C2)c1ccc([S+]([O-])C2CC2)o1` (stereo not drawn) [Example 4, N-[3-(5-chloro-1,3-benzoxazol-2-yl)-1-bicyclo[1.1.1]pentanyl]-5-cyclopropylsulfinyl-furan-2-carboxamide], the IC50 is 2.81 µM in the data set with HBsAg and 1.32 µM in the data set on HBeAg. The same compound registered a CC50 at 144 h in data set [1] of 80 µM.

With `O=C(NC12CC(c3nc4cc(Cl)ccc4o3)(C1)C2)c1ccc(S(=O)(=O)C2CC2)o1` [Example 5, N-[3-(5-chloro-1,3-benzoxazol-2-yl)-1-bicyclo[1.1.1]pentanyl]-5-cyclopropylsulfonyl-furan-2-carboxamide], the IC50 worked out at 0.688 µM in the data set on HBsAg and 0.75 µM in the data set on HBeAg. This compound also had a CC50 at 144 h in data set [1] greater than 100 µM.

In the case of `O=C(NC12CC(c3nc4cc(Cl)ccc4o3)(C1)C2)c1ccc([S+]([O-])CC2CC2)o1` (stereo not drawn) [Example 6, N-[3-(5-chloro-1,3-benzoxazol-2-yl)-1-bicyclo[1.1.1]pentanyl]-5-(cyclopropylmethylsulfinyl)furan-2-carboxamide], the 50% inhibitory concentration (IC50) in the data set with HBsAg amounted to 2.02 µM; in the data set with HBeAg, 1.37 µM. The CC50 at 144 h in data set [1] was greater than 100 µM.

Consider `O=C(NC12CC(c3nc4cc(Cl)ccc4o3)(C1)C2)c1ccc(S(=O)(=O)CC2CC2)o1` [Example 7, N-[3-(5-chloro-1,3-benzoxazol-2-yl)-1-bicyclo[1.1.1]pentanyl]-5-(cyclopropylmethylsulfonyl)furan-2-carboxamide], for which the values for the half-maximal inhibitory concentration (IC50) in the data set on HBsAg and in the data set on HBeAg were 1.31 µM and 1.21 µM, respectively. This compound also returned a CC50 at 144 h in data set [1] of 73.1 µM.

With `O=C(NC12CC(c3nc4cc(Cl)ccc4o3)(C1)C2)c1ccc(Br)o1` [Example 8, 5-bromo-N-[3-(5-chloro-1,3-benzoxazol-2-yl)-1-bicyclo[1.1.1]pentanyl]furan-2-carboxamide], the IC50 in the data set on HBsAg was 9.04 µM; in the data set with HBeAg, 14.8 µM. The CC50 at 144 h in data set [1] was greater than 100 µM.

Regarding `CS(=O)(=O)c1ccc(C(=O)NC23CC(c4nc5cc(Cl)ccc5o4)(C2)C3)s1` [Example 9, N-[3-(5-chloro-1,3-benzoxazol-2-yl)-1-bicyclo[1.1.1]pentanyl]-5-methylsulfonyl-thiophene-2-carboxamide], the results for the IC50 in the data set on HBsAg and in the data set with HBeAg were 9.64 µM and 5.37 µM, respectively. In data set [1], this compound showed a CC50 at 144 h greater than 100 µM.

In the case of `NS(=O)(=O)c1ccc(C(=O)NC23CC(c4nc5cc(Cl)ccc5o4)(C2)C3)o1` [Example 10, N-[3-(5-chloro-1,3-benzoxazol-2-yl)-1-bicyclo[1.1.1]pentanyl]-5-sulfamoyl-furan-2-carboxamide], the 50% inhibitory concentration (IC50) was 4.44 µM in the data set with HBsAg and 2.67 µM in the data set with HBeAg. Moreover, the CC50 at 144 h in data set [1] is greater than 100 µM.

`N=S(=O)(c1ccc(C(=O)NC23CC(c4nc5cc(Cl)ccc5o4)(C2)C3)o1)C1CC1` (stereo not drawn) [Example 11, N-[3-(5-chloro-1,3-benzoxazol-2-yl)-1-bicyclo[1.1.1]pentanyl]-5-(cyclopropylsulfonimidoyl)furan-2-carboxamide]: the IC50 was determined as 0.823 µM in the data set on HBsAg and 0.594 µM with HBeAg. Moreover, in data set [1], the half-maximal cytotoxic concentration (CC50) at 144 h was greater than 100 µM.

In the case of `CS(=N)(=O)c1ccc(C(=O)NC23CC(c4nc5cc(Cl)ccc5o4)(C2)C3)o1` (stereo not drawn) [Example 12, N-[3-(5-chloro-1,3-benzoxazol-2-yl)-1-bicyclo[1.1.1]pentanyl]-5-(methylsulfonimidoyl)furan-2-carboxamide], the 50% inhibitory concentration (IC50) in the data set with HBsAg was 1.52 µM; in the data set with HBeAg, 0.891 µM. The same compound came in with a CC50 at 144 h in data set [1] greater than 100 µM.

Turning to `C[S@@](=N)(=O)c1ccc(C(=O)NC23CC(c4nc5cc(Cl)ccc5o4)(C2)C3)o1` [Example 12-a, N-[3-(5-chloro-1,3-benzoxazol-2-yl)-1-bicyclo[1.1.1]pentanyl]-5-[(R)-methylsulfonimidoyl]furan-2-carboxamide], the half-maximal inhibitory concentration (IC50) worked out at 2.23 µM in the data set with HBsAg and 1.3 µM in the data set on HBeAg. Moreover, in data set [1], the CC50 at 144 h is greater than 100 µM.

For the compound `C[S@](=N)(=O)c1ccc(C(=O)NC23CC(c4nc5cc(Cl)ccc5o4)(C2)C3)o1` [Example 12-b, N-[3-(5-chloro-1,3-benzoxazol-2-yl)-1-bicyclo[1.1.1]pentanyl]-5-[(S)-methylsulfonimidoyl]furan-2-carboxamide], the IC50 was 2.19 µM in the data set on HBsAg and 1.01 µM with HBeAg. The same compound displayed a half-maximal cytotoxic concentration (CC50) at 144 h in data set [1] greater than 100 µM.

Consider `N=S(=O)(CC1CC1)c1ccc(C(=O)NC23CC(c4nc5cc(Cl)ccc5o4)(C2)C3)o1` (stereo not drawn) [Example 13, N-[3-(5-chloro-1,3-benzoxazol-2-yl)-1-bicyclo[1.1.1]pentanyl]-5-(cyclopropylmethylsulfonimidoyl)furan-2-carboxamide], for which the IC50 is 0.95 µM in the data set on HBsAg and 0.995 µM in the data set with HBeAg. The same compound showed a CC50 at 144 h in data set [1] greater than 100 µM.

On to `O=C(NC12CC(c3nc4cc(Cl)ccc4o3)(C1)C2)c1ccc(S(=O)(=O)CC2COC2)o1` [Example 14, N-[3-(5-chloro-1,3-benzoxazol-2-yl)-1-bicyclo[1.1.1]pentanyl]-5-(oxetan-3-ylmethylsulfonyl)furan-2-carboxamide], for which the IC50 with HBsAg was 5.18 µM; in the data set with HBeAg, 3.56 µM. Further, the half-maximal cytotoxic concentration (CC50) at 144 h in data set [1] stood at 95.7 µM.

Regarding `N=S(=O)(CC1COC1)c1ccc(C(=O)NC23CC(c4nc5cc(Cl)ccc5o4)(C2)C3)o1` (stereo not drawn) [Example 15, N-[3-(5-chloro-1,3-benzoxazol-2-yl)-1-bicyclo[1.1.1]pentanyl]-5-(oxetan-3-ylmethylsulfonimidoyl)furan-2-carboxamide], the IC50 was 4.76 µM in the data set with HBsAg and 3.31 µM in the data set with HBeAg. Further, the CC50 at 144 h in data set [1] was greater than 100 µM.

`CS(=O)(=O)Cc1ccc(C(=O)NC23CC(c4nc5cc(Cl)ccc5o4)(C2)C3)o1` [Example 16, N-[3-(5-chloro-1,3-benzoxazol-2-yl)-1-bicyclo[1.1.1]pentanyl]-5-(methylsulfonylmethyl)furan-2-carboxamide]: the IC50 worked out at 0.66 µM with HBsAg and 0.575 µM in the data set on HBeAg. Further, the cytotoxic concentration (CC50) at 144 h in data set [1] is greater than 100 µM.

Take `CS(=N)(=O)Cc1ccc(C(=O)NC23CC(c4nc5cc(Cl)ccc5o4)(C2)C3)o1` (stereo not drawn) [Example 17, N-[3-(5-chloro-1,3-benzoxazol-2-yl)-1-bicyclo[1.1.1]pentanyl]-5-[(methylsulfonimidoyl)methyl]furan-2-carboxamide]: the IC50 in the data set with HBsAg stood at 3.25 µM; in the data set on HBeAg, 2.19 µM. Besides, the CC50 at 144 h in data set [1] is greater than 100 µM.

Consider `NS(=O)(=O)Cc1ccc(C(=O)NC23CC(c4nc5cc(Cl)ccc5o4)(C2)C3)o1` [Example 18, N-[3-(5-chloro-1,3-benzoxazol-2-yl)-1-bicyclo[1.1.1]pentanyl]-5-(sulfamoylmethyl)furan-2-carboxamide], for which the 50% inhibitory concentration (IC50) in the data set on HBsAg amounted to 4.96 µM; in the data set on HBeAg, 3.7 µM. Also, the CC50 at 144 h in data set [1] was greater than 100 µM.
